{"source": "patent US5028715A", "about": "“Radioprotective agents and their method of manufacture” (priority 1989, dated 1991)", "assay_type_in_all_cases": "in vivo", "key": {"[1]": {"test": "Acute toxicity in mice (Table I)", "details": "mouse, in vivo; for survival: read-out: Survivors (%); for LD50: mice, ip", "experimental": "(§1) Radioprotective Agents A, B, C, and D were tested for acute toxicity and radioprotective activity using test mice at various dosage levels against LD100 of γ-radiation. The agents were administered interperitoneally (ip)."}, "test mice [2]": {"tested_on": "test mice", "test": "Acute toxicity in mice (Table I)", "details": "vehicle H2O", "experimental": "as §1"}, "test mice [3]": {"tested_on": "test mice", "test": "Radioprotective activity in mice against LD100 of γ-radiation (1000 RAD) (Table II)", "details": "for toxicity (in words): at the levels used in this test; for protection against LD100 dose of irradiation (in words): dose level near the LD50 (50 mg/kg), all the mice survived"}, "[4]": {"details": "18.75 mg/kg ip, 30 min before 1000 RAD"}, "[5]": {"details": "37.5 mg/kg ip, 30 min before 1000 RAD"}, "[6]": {"details": "75 mg/kg ip, 30 min before 1000 RAD"}, "[7]": {"details": "55.1 mg/kg ip, 0 min before 1000 RAD"}, "[8]": {"details": "110.3 mg/kg ip, 0 min before 1000 RAD"}, "[9]": {"details": "220.6 mg/kg ip, 0 min before 1000 RAD"}, "[10]": {"details": "441 mg/kg ip, 0 min before 1000 RAD"}, "[11]": {"details": "54.3 mg/kg ip, 30 min before 1000 RAD"}, "[12]": {"details": "109 mg/kg ip, 30 min before 1000 RAD"}, "[13]": {"details": "217 mg/kg ip, 30 min before 1000 RAD"}, "[14]": {"details": "435 mg/kg ip, 30 min before 1000 RAD"}, "[15]": {"details": "150 mg/kg ip, 30 min before 1000 RAD"}, "[16]": {"details": "300 mg/kg ip, 30 min before 1000 RAD"}, "[17]": {"details": "300 mg/kg po, 30 min before 1000 RAD"}, "[18]": {"details": "600 mg/kg po, 30 min before 1000 RAD"}, "[19]": {"details": "1200 mg/kg po, 30 min before 1000 RAD"}}, "note": "Read-outs that look alike come from different tables or passages of the source.", "data": [{"smiles": "COc1ccc(C2SCCN2CCCN)cc1", "note": "(stereo not drawn) [B]", "values": [{"measurement": "survival", "setting": "[1]; 75 mg/kg ip, vehicle H2O", "result": 100, "unit": "%"}, {"measurement": "survival", "setting": "[1]; 150 mg/kg ip, vehicle H2O", "result": 20, "unit": "%"}, {"measurement": "survival", "setting": "[1]; 300 mg/kg ip, vehicle H2O", "result": 0, "unit": "%"}, {"measurement": "survival", "setting": "[1]; 600 mg/kg ip, vehicle H2O", "result": 0, "unit": "%"}, {"measurement": "Deaths", "setting": "test mice [2]; 75 mg/kg ip", "result": "0/5"}, {"measurement": "Deaths", "setting": "test mice [2]; 150 mg/kg ip", "result": "4/5"}, {"measurement": "Deaths", "setting": "test mice [2]; 300 mg/kg ip", "result": "5/5"}, {"measurement": "Deaths", "setting": "test mice [2]; 600 mg/kg ip", "result": "5/5"}, {"measurement": "Drug Related Lethality", "setting": "test mice [3]; [4]", "result": "0/10"}, {"measurement": "Survivors (%)", "setting": "test mice [3]; [4]", "result": 0, "unit": "%"}, {"measurement": "Drug Related Lethality", "setting": "test mice [3]; [5]", "result": "0/10"}, {"measurement": "Survivors (%)", "setting": "test mice [3]; [5]", "result": 0, "unit": "%"}, {"measurement": "Drug Related Lethality", "setting": "test mice [3]; [6]", "result": "0/10"}, {"measurement": "Survivors (%)", "setting": "test mice [3]; [6]", "result": 20, "unit": "%"}, {"measurement": "toxicity (in words)", "setting": "test mice [3]", "result": "toxic"}]}, {"smiles": "NCCCN1CCSC1c1ccc2c(c1)OCO2", "note": "(stereo not drawn) [D]", "values": [{"measurement": "survival", "setting": "[1]; 37.5 mg/kg ip, vehicle H2O", "result": 100, "unit": "%"}, {"measurement": "survival", "setting": "[1]; 75 mg/kg ip, vehicle H2O", "result": 0, "unit": "%"}, {"measurement": "survival", "setting": "[1]; 150 mg/kg ip, vehicle H2O", "result": 0, "unit": "%"}, {"measurement": "survival", "setting": "[1]; 300 mg/kg ip, vehicle H2O", "result": 0, "unit": "%"}, {"measurement": "LD50", "setting": "[1]", "result": 50, "unit": "mg/kg"}, {"measurement": "Deaths", "setting": "test mice [2]; 37.5 mg/kg ip", "result": "0/5"}, {"measurement": "Deaths", "setting": "test mice [2]; 75 mg/kg ip", "result": "5/5"}, {"measurement": "Deaths", "setting": "test mice [2]; 150 mg/kg ip", "result": "5/5"}, {"measurement": "Deaths", "setting": "test mice [2]; 300 mg/kg ip", "result": "5/5"}, {"measurement": "Drug Related Lethality", "setting": "test mice [3]; [7]", "result": "0/5"}, {"measurement": "Survivors (%)", "setting": "test mice [3]; [7]", "result": 100, "unit": "%"}, {"measurement": "Drug Related Lethality", "setting": "test mice [3]; [8]", "result": "5/5"}, {"measurement": "Survivors (%)", "setting": "test mice [3]; [8]", "result": 0, "unit": "%"}, {"measurement": "Drug Related Lethality", "setting": "test mice [3]; [9]", "result": "5/5"}, {"measurement": "Survivors (%)", "setting": "test mice [3]; [9]", "result": 0, "unit": "%"}, {"measurement": "Drug Related Lethality", "setting": "test mice [3]; [10]", "result": "5/5"}, {"measurement": "Survivors (%)", "setting": "test mice [3]; [10]", "result": 0, "unit": "%"}, {"measurement": "protection against LD100 dose of irradiation (in words)", "setting": "test mice [3]", "result": "complete protection"}]}, {"smiles": "COc1ccc(C2SCCN2CCCN)cc1OC", "note": "(stereo not drawn) [C]", "values": [{"measurement": "mortality", "setting": "[1]; 37.5 mg/kg ip, vehicle H2O, read-out: Deaths", "result": 50, "unit": "%"}, {"measurement": "survival", "setting": "[1]; 37.5 mg/kg ip, vehicle H2O", "result": 100, "unit": "%"}, {"measurement": "survival", "setting": "[1]; 75 mg/kg ip, vehicle H2O", "result": 0, "unit": "%"}, {"measurement": "survival", "setting": "[1]; 150 mg/kg ip, vehicle H2O", "result": 0, "unit": "%"}, {"measurement": "survival", "setting": "[1]; 300 mg/kg ip, vehicle H2O", "result": 0, "unit": "%"}, {"measurement": "LD50", "setting": "[1]", "result": 50, "unit": "mg/kg"}, {"measurement": "Deaths", "setting": "test mice [2]; 75 mg/kg ip", "result": "5/5"}, {"measurement": "Deaths", "setting": "test mice [2]; 150 mg/kg ip", "result": "5/5"}, {"measurement": "Deaths", "setting": "test mice [2]; 300 mg/kg ip", "result": "5/5"}, {"measurement": "Drug Related Lethality", "setting": "test mice [3]; [11]", "result": "0/5"}, {"measurement": "Survivors (%)", "setting": "test mice [3]; [11]", "result": 100, "unit": "%"}, {"measurement": "Drug Related Lethality", "setting": "test mice [3]; [12]", "result": "5/5"}, {"measurement": "Survivors (%)", "setting": "test mice [3]; [12]", "result": 0, "unit": "%"}, {"measurement": "Drug Related Lethality", "setting": "test mice [3]; [13]", "result": "5/5"}, {"measurement": "Survivors (%)", "setting": "test mice [3]; [13]", "result": 0, "unit": "%"}, {"measurement": "Drug Related Lethality", "setting": "test mice [3]; [14]", "result": "5/5"}, {"measurement": "Survivors (%)", "setting": "test mice [3]; [14]", "result": 0, "unit": "%"}, {"measurement": "protection against LD100 dose of irradiation (in words)", "setting": "test mice [3]", "result": "complete protection"}]}, {"smiles": "NCCCN1CCSC1c1ccc([N+](=O)[O-])cc1", "note": "(stereo not drawn) [A]", "values": [{"measurement": "survival", "setting": "[1]; 75 mg/kg ip, vehicle H2O", "result": 100, "unit": "%"}, {"measurement": "survival", "setting": "[1]; 150 mg/kg ip, vehicle H2O", "result": 100, "unit": "%"}, {"measurement": "survival", "setting": "[1]; 300 mg/kg ip, vehicle H2O", "result": 60, "unit": "%"}, {"measurement": "survival", "setting": "[1]; 600 mg/kg ip, vehicle H2O", "result": 0, "unit": "%"}, {"measurement": "Deaths", "setting": "test mice [2]; 75 mg/kg ip", "result": "0/5"}, {"measurement": "Deaths", "setting": "test mice [2]; 150 mg/kg ip", "result": "0/5"}, {"measurement": "Deaths", "setting": "test mice [2]; 300 mg/kg ip", "result": "2/5"}, {"measurement": "Deaths", "setting": "test mice [2]; 600 mg/kg ip", "result": "5/5"}, {"measurement": "Drug Related Lethality", "setting": "test mice [3]; [6]", "result": "0/10"}, {"measurement": "Survivors (%)", "setting": "test mice [3]; [6]", "result": 20, "unit": "%"}, {"measurement": "Drug Related Lethality", "setting": "test mice [3]; [15]", "result": "0/10"}, {"measurement": "Survivors (%)", "setting": "test mice [3]; [15]", "result": 30, "unit": "%"}, {"measurement": "Drug Related Lethality", "setting": "test mice [3]; [16]", "result": "5/10"}, {"measurement": "Survivors (%)", "setting": "test mice [3]; [16]", "result": 40, "unit": "%"}, {"measurement": "Drug Related Lethality", "setting": "test mice [3]; [17]", "result": "0/10"}, {"measurement": "Survivors (%)", "setting": "test mice [3]; [17]", "result": 0, "unit": "%"}, {"measurement": "Drug Related Lethality", "setting": "test mice [3]; [18]", "result": "0/10"}, {"measurement": "Survivors (%)", "setting": "test mice [3]; [18]", "result": 0, "unit": "%"}, {"measurement": "Drug Related Lethality", "setting": "test mice [3]; [19]", "result": "7/10"}, {"measurement": "Survivors (%)", "setting": "test mice [3]; [19]", "result": 0, "unit": "%"}, {"measurement": "toxicity (in words)", "setting": "test mice [3]", "result": "toxic"}]}]}
